One assay concerns the target recombinant human S1PR2 (Homo sapiens, UniProt O95136). The assay is described as follows: [32P]S1P competitive cell membrane binding assay, S1PR2.
Another assay addresses S1PR1 (Homo sapiens, UniProt P21453). As to the kind of experiment: [32P]S1P competitive cell membrane binding assay, S1PR1.
In the next assay the target is S1PR3 (Homo sapiens, UniProt Q99500). As to the kind of experiment: [32P]S1P competitive cell membrane binding assay, S1PR3.
[1] abbreviates: IC50 S1PR2, competition against [32P]S1P, CHO cell membrane.

Read-outs that look alike come from different tables or passages of the source.

Sequence of S1PR3 (Q99500 whole entry, species assumed): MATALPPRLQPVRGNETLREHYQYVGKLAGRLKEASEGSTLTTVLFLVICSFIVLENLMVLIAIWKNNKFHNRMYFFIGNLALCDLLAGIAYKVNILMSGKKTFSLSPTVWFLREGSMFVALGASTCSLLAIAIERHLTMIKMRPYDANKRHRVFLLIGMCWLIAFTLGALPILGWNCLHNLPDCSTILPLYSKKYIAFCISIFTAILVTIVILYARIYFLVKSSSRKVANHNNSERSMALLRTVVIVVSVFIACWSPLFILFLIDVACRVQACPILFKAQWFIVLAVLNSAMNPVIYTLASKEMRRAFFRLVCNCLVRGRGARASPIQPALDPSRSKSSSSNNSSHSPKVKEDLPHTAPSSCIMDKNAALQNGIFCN
Sequence of recombinant human S1PR2 (O95136 whole entry): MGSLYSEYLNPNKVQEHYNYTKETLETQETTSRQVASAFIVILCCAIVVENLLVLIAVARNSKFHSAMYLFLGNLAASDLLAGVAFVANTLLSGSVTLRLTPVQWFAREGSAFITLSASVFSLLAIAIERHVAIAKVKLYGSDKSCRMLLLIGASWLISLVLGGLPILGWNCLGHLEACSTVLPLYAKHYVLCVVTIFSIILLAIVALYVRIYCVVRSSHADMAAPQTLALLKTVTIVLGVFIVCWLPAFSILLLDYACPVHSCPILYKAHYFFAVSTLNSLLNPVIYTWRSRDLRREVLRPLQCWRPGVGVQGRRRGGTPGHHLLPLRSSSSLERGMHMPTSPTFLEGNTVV
Sequence of S1PR1 (P21453 whole entry, species assumed): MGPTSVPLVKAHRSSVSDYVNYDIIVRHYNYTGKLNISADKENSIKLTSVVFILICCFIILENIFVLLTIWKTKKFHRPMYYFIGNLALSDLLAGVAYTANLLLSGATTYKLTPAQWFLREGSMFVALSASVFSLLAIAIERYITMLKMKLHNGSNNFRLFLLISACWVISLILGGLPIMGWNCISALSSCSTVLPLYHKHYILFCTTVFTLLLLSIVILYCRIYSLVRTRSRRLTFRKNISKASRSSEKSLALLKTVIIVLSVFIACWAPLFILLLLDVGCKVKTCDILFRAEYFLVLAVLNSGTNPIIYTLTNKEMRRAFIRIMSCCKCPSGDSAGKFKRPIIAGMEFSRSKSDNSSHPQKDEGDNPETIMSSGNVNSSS

For `Cc1nn(C)c2nc(NNC(=O)Nc3cc(Cl)nc(OCCF)c3)cc(C(C)C)c12` [Compound 5f, N-(2-Chloro-6-(2-fluoroethoxy)pyridin-4-yl)-2-(4-isopropyl-1,3-dimethyl-1H-pyrazolo[3,4-b]pyridin-6-yl)hydrazine-1-carboxamide], the IC50 is 8.12 ± 0.62 nM on recombinant human S1PR2 (setting [1]), over 1000 nM on S1PR1 and over 1000 nM on S1PR3.
With `COc1cc(NC(=O)NNc2cc(C(C)C)c3c(C)nn(C)c3n2)cc(Cl)n1` [Compound 5a, N-(2-Chloro-6-methoxypyridin-4-yl)-2-(4-isopropyl-1,3-dimethyl-1H-pyrazolo[3,4-b]pyridin-6-yl)hydrazine-1-carboxamide], the half-inhibitory concentration (IC50) on recombinant human S1PR2 (setting [1]) is 9.52 ± 0.7 nM; on S1PR1, over 1000 nM; at S1PR3, over 1000 nM. The “Binding potency for S1PR2 relative to JTE-013” value on recombinant human S1PR2 (ratio of IC50 values) is “seven-fold more potent”.
Take `Cc1nn(C)c2nc(NNC(=O)Nc3cc(Cl)nc(Cl)c3)cc(C(C)C)c12` [JTE-013, reference compound]: the half-inhibitory concentration (IC50) is 68.5 ± 7.45 nM on recombinant human S1PR2 (read-out: IC50 S1PR2, competition against [32P]S1P, CHO cell membrane); over 1000 nM on S1PR1 (read-out: IC50 S1PR1, competition against [32P]S1P); over 1000 nM on S1PR3 (read-out: IC50 S1PR3, competition against [32P]S1P).
With `COCCOc1cc(NC(=O)NNc2cc(C(C)C)c3c(C)nn(C)c3n2)cc(Cl)n1` [Compound 5c, N-(2-Chloro-6-(2-methoxyethoxy)pyridin-4-yl)-2-(4-isopropyl-1,3-dimethyl-1H-pyrazolo[3,4-b]pyridin-6-yl)hydrazine-1-carboxamide], the figures for the concentration for half-maximal inhibition (IC50) at recombinant human S1PR2 (setting [1]), at S1PR1 and at S1PR3 were 234 nM, over 1000 nM and over 1000 nM, respectively.
In the case of `COCn1c(Cl)cc(NC(=O)NNc2cc(C(C)C)c3c(C)nn(C)c3n2)cc1=O` [Compound 5d, N-(6-Chloro-1-(methoxymethyl)-2-oxo-1,2-dihydropyridin-4-yl)-2-(4-isopropyl-1,3-dimethyl-1H-pyrazolo[3,4-b]pyridin-6-yl)hydrazine-1-carboxamide], the IC50 on recombinant human S1PR2 (setting [1]), on S1PR1 and on S1PR3 was over 1000 nM throughout. The “IC50 S1PR2” value at recombinant human S1PR2 (competition against [32P]S1P, CHO cell membrane) is on record as “No binding potency”.
With `Cc1nn(C)c2nc(NNC(=O)Nc3cc(F)nc(Cl)c3)cc(C(C)C)c12` [Compound 5b, N-(2-Chloro-6-fluoropyridin-4-yl)-2-(4-isopropyl-1,3-dimethyl-1H-pyrazolo[3,4-b]pyridin-6-yl)hydrazine-1-carboxamide], the IC50 on recombinant human S1PR2 (setting [1]) is 135 nM; at S1PR1, over 1000 nM; at S1PR3, over 1000 nM.
For `COCOc1cc(NC(=O)NNc2cc(C(C)C)c3c(C)nn(C)c3n2)cc(Cl)n1` [Compound 5e, N-(2-Chloro-6-(methoxymethoxy)pyridin-4-yl)-2-(4-isopropyl-1,3-dimethyl-1H-pyrazolo[3,4-b]pyridin-6-yl)hydrazine-1-carboxamide], the half-maximal inhibitory concentration (IC50) on recombinant human S1PR2 (setting [1]) is 8.09 ± 0.91 nM; at S1PR1, over 1000 nM; at S1PR3, over 1000 nM.

One may read the IC50 as the concentration at which inhibition is half-maximal.
